# From US6506417B1, “Composition and process for reducing bacterial citrus canker organisms” (FMC Technologies, Inc., priority 2001, dated 2003)
# Columns and labels:
# [1] = test system: X. axonopodis pv. citrumelo; experiment: Dose-response study, 1 minute exposure to peracetic acid dilutions; type: cell-based
# Procedure: Four strains of X. axonopodis pv. citrumelo were obtained from the Florida Department of Citrus and propagated in Nutrient Broth (Difco) at 22° C. with agitation for 48 to 72 hours. Cells were pelleted at 5,000 rpm/16 minutes, washed with Butterfield's Phosphate (pH 7.2) and resuspended in approximately 10% of the initial culture volume with Butterfield's Phosphate in order to concentrate the cells 10×. This final concentrate was used as the inoculum for the dose-response study. FMC VigorOx Liquid Sanitizer and Disinfectant (5% peracetic acid) and VigorOx SP-15 Antimicrobial Agent (15% peracetic acid) were diluted to final peracetic acid concentrations of 0 ppm (control), 5 ppm, 10 ppm, 20 ppm, 30 ppm, 40 ppm, 50 ppm, 60 ppm, 70 ppm, and 80 ppm with distilled water. Each variable was dispensed in 9.9 ml aliquots in sterile test tubes.
# A 0.1 ml aliquot of the inoculum was added to each peracetic acid variable, shaken, and allowed to remain exposed to the solution for 1 minute. […]
# Data summaries of trials performed on each product are expressed in the following tables. […] The initial inoculum was determined to contain 2.9×10^11 cfu/ml X. axonopodis, and the initial level of X. axonopodis exposed to each concentration of peracetic acid was determined to be 2.9×10^9 cfu/ml.
# [2] = test system: Xanthomonas campestris pv. vesicatoria; settings: 200 μg/ml; cited from earlier work
compound,measurement,setting,value
CC(=O)OO [peroxyacetic acid],reduction of X. axonopodis,"[1]; 30 parts per million peroxyacetic acid, and above",> 99.9%
same,significant reduction of X. axonopodis,[1]; greater than 10 but less than 20 parts per million peroxyacetic acid,> 1 log10 cfu/ml
same,level of eradication,[2],acceptable level of eradication comparable to approved chlorine treatments
